In article PMC12383718, “C-Terminal Modification Contributes the Antibacterial Activity of a Cecropin-like Region of Heteroscorpine-1 from Scorpion Venom” (Biology, 2025):
≈ marks a conversion by molar mass, not a printed value. Ends that are not written are not given here.

What was measured:
[1] = system: Escherichia coli ATCC 25922; assay: microbe, parasite or virus in culture; format: cell-based; details: E. coli ATCC 25922, 37 °C, 16–18 h, ND = no detection at the highest tested concentration
Description: (§1) The following microorganisms were used to determine the minimum inhibitory concentration (MIC) and minimum bactericidal concentration (MBC) of the peptides: Gram-positive Staphylococcus aureus ATCC 25923, Gram-negative Escherichia coli ATCC 25922, Klebsiella pneumoniae ATCC 27736, and Pseudomonas aeruginosa ATCC 27853. The assays were conducted according to the protocol described by Erviana et al., with some modifications.
(§2) The antibacterial activity of the modified CeHS-1 analogs was evaluated using MIC and MBC assays. The MIC (minimum inhibitory concentration) is defined as the lowest concentration of antimicrobial peptides (AMPs) or other agents that inhibits visible bacterial growth. In contrast, the MBC (minimum bactericidal concentration) is defined as the lowest concentration of AMPs that kills 99.9% of the bacterial inoculum under the specified conditions. The determination of MIC values was performed using a 96-well plate assay. Initially, peptides were serially diluted in the wells. Then, 10 µL of bacterial inoculum, previously adjusted to a cell density of 2.2 × 10^6 CFU/mL, was added to each well. The plates were incubated at 37 °C for 16–18 h. The MIC was determined by measuring the optical density at 600 nm (OD600), with the lowest concentration of AMPs that inhibited visible bacterial growth defined as the MIC. […] The lowest concentration of AMPs at which no bacterial colonies were observed was defined as the MBC [47].

[2] = system: Klebsiella pneumoniae ATCC 27736; assay: microbe, parasite or virus in culture; format: cell-based; details: K. pneumoniae ATCC 27736, 37 °C, 16–18 h, ND = no detection at the highest tested concentration
Description: as §1, §2

[3] = system: Pseudomonas aeruginosa ATCC 27853; assay: microbe, parasite or virus in culture; format: cell-based; details: P. aeruginosa ATCC 27853, 37 °C, 16–18 h, ND = no detection at the highest tested concentration
Description: as §1, §2

[4] = system: Staphylococcus aureus ATCC 25923; assay: microbe, parasite or virus in culture; format: cell-based; details: S. aureus ATCC 25923, 37 °C, 16–18 h, ND = no detection at the highest tested concentration
Description: as §1, §2

[5] = system: S. aureus cytoplasmic membrane; format: cell-based, Staphylococcus aureus; details: S. aureus 10^6 CFU/mL in PBS, 0.25, 0.5 and 1 MIC, 1 h, 37 °C; flow cytometry; at least triplicate
Description: A bacterial suspension of S. aureus was cultured in LB medium to the exponential phase (OD600 = 0.5). […] Following incubation, 42 µL of SYTOX™ Green Ready Flow™ Reagent (Invitrogen, Thermo Fisher Scientific, Carlsbad, CA, USA) was added to the peptide-treated cells and incubated for an additional 10 min at 25 °C. Fluorescence emission was measured using flow cytometry. The cell population was gated based on forward scatter and side scatter parameters. Cells with compromised membranes were identified by their fluorescence (excitation at 488 nm and detection at 530 nm with a 30 nm bandpass filter). The mean fluorescence intensity and the percentage of fluorescent cells were determined by analyzing 100,000 cells per sample. Each experiment was performed in at least triplicate. Flow cytometry measurements were conducted using a BD FACSCanto II system (BD Biosciences, Wokingham, UK).

[6] = system: human red blood cells (hRBCs); assay: Hemolytic activity assay; format: cell-based; details: 500 µg/mL peptide (highest concentration tested); 4% hRBC suspension in PBS pH 7.4, 37 °C, 1 h, absorbance 415 nm; relative to 0.1% Triton X-100
Description: The hemolytic activity of the peptides was assessed using human red blood cells (hRBCs), following the method described by Erviana et al., with some modifications. Briefly, a 4% hRBC suspension was prepared in 1X phosphate-buffered saline (PBS, pH 7.4). Subsequently, 100 µL of the hRBC suspension was mixed with 100 µL of peptide samples at various concentrations (500, 200, 100, 50, and 25 µg/mL) in microcentrifuge tubes. The mixture was incubated at 37 °C for 1 h, followed by centrifugation at 100× g for 5 min. The supernatant was collected and transferred to a 96-well plate for absorbance measurement at 415 nm. The hemolytic activity of each peptide was subsequently calculated using the following equation: Hemolysis (%)=S/P×100
In the above equation, S represents the absorbance at 415 nm of the sample or negative control, while P represents the absorbance at 415 nm of the positive control. The peptide solvent was used as the negative control, whereas 0.1% Triton X-100 served as the positive control.

[7] = 25 µL from wells without visible growth spread on nutrient agar
[8] = 96-well plate serial dilution, 10 µL inoculum of 2.2 × 10^6 CFU/mL, OD600

Molecule | MBC ([1]; Escherichia coli, ATCC25922, 25 µL from wells without visible growth spread on nutrient agar) [µg/mL] | MIC ([1]; Escherichia coli, ATCC25922, 96-well plate serial dilution, 10 µL inoculum of 2.2 × 10^6 CFU/mL, OD600) [µg/mL] | MBC ([2]; Klebsiella pneumoniae, ATCC27736, 25 µL from wells without visible growth spread on nutrient agar) [µg/mL] | MIC ([2]; Klebsiella pneumoniae, ATCC27736, 96-well plate serial dilution, 10 µL inoculum of 2.2 × 10^6 CFU/mL, OD600) [µg/mL] | MBC ([3]; Pseudomonas aeruginosa, ATCC27853, 25 µL from wells without visible growth spread on nutrient agar) [µg/mL] | MIC ([3]; Pseudomonas aeruginosa, ATCC27853, 96-well plate serial dilution, 10 µL inoculum of 2.2 × 10^6 CFU/mL, OD600) [µg/mL] | MBC ([4]; Staphylococcus aureus, ATCC25923, 25 µL from wells without visible growth spread on nutrient agar) [µg/mL] | MIC ([4]; Staphylococcus aureus, ATCC25923, 96-well plate serial dilution, 10 µL inoculum of 2.2 × 10^6 CFU/mL, OD600) [µg/mL] | Cytoplasmic membrane permeabilization (SYTOX Green fluorescence intensity) [5] | E. coli MBC [1, 7] [µg/mL] | E. coli MIC [1, 8] [µg/mL] | Hemolytic activity [6] [%] | K. pneumoniae MBC [2, 7] [µg/mL] | K. pneumoniae MIC [2, 8] [µg/mL] | P. aeruginosa MBC [3, 7] [µg/mL] | P. aeruginosa MIC [3, 8] [µg/mL] | S. aureus MBC [4, 7] [µg/mL] | S. aureus MIC [4, 8] [µg/mL]
CC1(C)S[C@@H]2[C@H](NC(=O)[C@H](N)c3ccccc3)C(=O)N2[C@H]1C(=O)O [Ampicillin, reference compound] | 32 (≈ 91.6 µM) | 4 (≈ 11.4 µM) | > 256 | > 256 | 256 (≈ 733 µM) | 128 (≈ 366 µM) | 8 (≈ 22.9 µM) | 8 (≈ 22.9 µM) |  |  |  |  |  |  |  |  |  | 
NC[C@H]1O[C@H](O[C@H]2[C@H](O)[C@@H](O[C@H]3O[C@H](CO)[C@@H](O)[C@H](N)[C@H]3O)[C@H](N)C[C@@H]2N)[C@H](O)[C@@H](O)[C@@H]1O [kanamycin] |  |  |  |  |  |  |  |  | low fluorescence intensity |  |  |  |  |  |  |  |  | 
GWINIIKIQKKRWW-NH2 [compound 3] |  |  |  |  |  |  |  |  |  | 256 | 128 | 7.74 ± 1.18 |  |  |  |  |  | 
KIQKKIIKKIGRWW-NH2 [compound 6] |  |  |  |  |  |  |  |  |  | 8 | 8 | 2.35 ± 0.20 | 256 | 256 | 32 | 16 | 64 | 32
KKILGGMAKAVRWW-NH2 [compound 9] |  |  |  |  |  |  |  |  |  | 32 | 8 | 2.39 ± 0.22 | 128 | 128 | 128 | 64 | 128 | 64
VHKLAKGIFKRWW-NH2 [compound 12] |  |  |  |  |  |  |  |  |  | 16 | 4 | 1.67 ± 0.17 | 256 | 256 | 64 | 32 | 32 | 32
